Test [1] deals with T1, PTP1B (Homo sapiens, UniProt P18031).
T1 construct: human recombinant PTP1B (1–302)
T1 sequence (P18031 1-302): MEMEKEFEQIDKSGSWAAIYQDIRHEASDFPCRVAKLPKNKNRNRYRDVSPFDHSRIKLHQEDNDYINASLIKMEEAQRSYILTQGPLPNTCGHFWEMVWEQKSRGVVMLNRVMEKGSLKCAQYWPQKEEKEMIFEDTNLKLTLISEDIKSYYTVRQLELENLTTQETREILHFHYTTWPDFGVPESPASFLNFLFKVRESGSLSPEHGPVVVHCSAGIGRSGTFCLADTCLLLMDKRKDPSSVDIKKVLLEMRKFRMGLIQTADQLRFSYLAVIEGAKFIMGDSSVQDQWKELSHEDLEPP
The test can be described thus: Determination of the mechanism of inhibition on PTP1B (KM, Vmax, Lineweaver-Burk, secondary plots). The settings on record: for α: Ki′ = αKi; for Ki′: from 1/Vmax versus inhibitor concentration (Ki′ = αKi); for Ki: from KM/Vmax versus inhibitor concentration. Type of test: biochemical. Here is the method:
The inhibitory mechanism of tested compounds was determined studying the dependence between the main kinetics parameters (KM and Vmax) and the inhibitors concentrations. Briefly, KM and Vmax values were calculated measuring the hydrolysis rate of PTP1B in the absence/presence of different inhibitor concentrations, while increasing substrate content. Data obtained were fitted using Michaelis-Menten equation and a non-linear fitting software. Then, data were analysed using the double reciprocal plot (Lineweaver-Burk method).
Figure 5 Kinetic characterization of 3 as PTP1B inhibitor. […] Dependence of main kinetic parameters KM (A) and Vmax (B) from the concentration of compound 3. Lineweaver-Burk plot (C). Bars represent the standard deviations of the means from at least three independent measurements (if not present, they are within the symbol’s size). […] E, free enzyme; S, substrate; ES, enzyme-substrate complex; EI, enzyme-inhibitor complex; ESI the enzyme-substrate-inhibitory ternary complex; Ks, dissociation constant of the enzyme-substrate complex; Ki, dissociation constant of EI complex; αKs and αKi, dissociation constant of enzyme-substrate-inhibitor complex (α > 1).
Figure 6 Secondary plots. KM/Vmax (A) and 1/Vmax (B) versus the inhibitor concentration, respectively. The intercept of straight line with the “x” axis in Panel A, represents the Ki value, while the intercept of straight line with the “x” axis in Panel B represents the Ki′ value (Ki′ = αKi).
Figure 7 Kinetic characterization of 8a as PTP1B inhibitor. […] Dependence of KM (A) and Vmax (B) from the inhibitor concentration. Lineweaver-Burk graph (C). Bars represent the standard deviations of the means from at least three independent measurements (if not present, they are within the symbol’s size). Secondary plots: KM/Vmax (D) and 1/Vmax (E) versus the inhibitor concentration, respectively. The intercept of straight line with the “x” axis in Figure D represents the Ki value, while the intercept of straight line with the “x” axis in Figure E represents the Ki′ value (Ki′ = αKi).

Test [2] addresses T2, human recombinant AR (Homo sapiens, UniProt P15121).
T2 construct: made in house
The test can be described thus: AR enzymatic assay (NADPH oxidation, L-idose substrate). Type of test: biochemical. The settings on record: for remaining activity at 71 µM: 71 µM (maximal concentration used), read-out: % residual activity of human AR. Here is the method:
The human recombinant AR, purified to electrophoretic homogeneity as described, was used as target enzyme. AR activity was determined at 37 °C as previously described by evaluating the decrease in absorbance at 340 nm linked to NADPH oxidation using a Biochrom Libra S60 spectrophotometer. The standard assay mixture contained 0.25 M sodium phosphate buffer pH 6.8, 0.18 mM NADPH, 0.42 M ammonium sulfate, 0.5 mM EDTA and 4.7 mM D,L-glyceraldehyde. One unit of enzyme activity is the amount that catalyses the conversion of 1 µmol of substrate/min in the above assay conditions. For AR inhibition studies, 0.8 mM L-idose was used as substrate in the conditions described above, in the presence of 10 mU of enzyme and of a final concentration of DMSO of 0.7% (v/v).

The subject of test [3] is C2C12 cells. The test is described as follows: Glucose uptake assay (2-NBDG, flow cytometry). The test is classed as cell-based, murine. The settings on record: 20 µM compound alone, 30 min, then 2-NBDG 3 h. Here is the method: To evaluate glucose uptake, C2C12 cells were grown until 80% confluence and then incubated in starvation medium for 24 h. After this time, cells were stimulated with 10 nM insulin (Humalog Lispro, Eli Lilly), 20 µM compound 3 or 3-insulin combination for 30 min and then incubated in the presence of 40 µM of 2-NBDG (Invitrogen) for 3 h. Then, cells were washed with PBS, tripsinized, pelleted by centrifugation (1000× g for 5 min), then suspended in 500 µL of PBS. The amount of 2-NBDG uploaded by cells was determined analysing cells by using a flow cytometer apparatus (FACSCanto II, BD Biosciences, San Jose, CA, USA). For each sample 1 × 10^4 events were acquired. Data obtained were then analysed with FlowJo software. Cells autofluorescence values were determined before sample analysis and subtracted to each sample.
Figure 13 Glucose uptake assay. C2C12 cells were treated with 10 nM insulin, 20 µM compound 3 or 3-insulin combination and then incubated in the presence of 2-NBDG for 3 h. After that, the glucose uptake was analysed by flow cytometry analysis. Each test was carried out in quadruplicate. For each test, 10,000 events at least were analysed. (A), quantification of the mean fluorescence values of C2C12 cells. Data represents the mean value ± SD (n = 4). […] (B), representative cell fluorescence distribution obtained by analysing data with the FlowJo software. […]

The subject of test [4] is GST–PTP1B fusion protein. Details: method as in PMID 27064611. The settings on record: different pH value, read-out: IC50 on PTP1B previously determined; cited from earlier work.

Each structure is given as a SMILES string.

By Ki is commonly meant a measure of affinity in units of concentration, obtained from inhibition or displacement. Low values mean tighter binding, high ones weaker binding. As usually defined, the IC50 is the midpoint of a concentration-inhibition curve.

Consider `CCCCC[C@@H](OP(=O)(O)O)[C@@H](O)CC[C@H](CCCC)OC(C)=O` (relative stereo) [Compound 8a], for which, in test [1], the “Inhibitory mechanism on PTP1B” value was “mixed type inhibitor”, the α is 1.6 ± 0.1, the “Ki′” value is 5.4 ± 0.2 µM and affinity was put at a Ki of 3.3 ± 0.4 µM. Further, the remaining activity at 71 µM in test [2] was determined as 87 ± 2%.
Turning to `CCCCCCCCCCCCCCC(OP(=O)(O)O)C(O)CCCO` (stereo not shown) [Compound 3], in test [1], the “Inhibitory mechanism on PTP1B” value is on record as “linear mixed-type inhibitor”, the α was 1.4 ± 0.2, the “Ki′” value worked out at 9.4 ± 0.6 µM and affinity was put at a Ki of 6.6 ± 0.8 µM. In addition, in test [3], the “Glucose uptake (2-NBDG)” value is reported as “incorporated more glucose than insulin-stimulated C2C12 cells”. In addition, in test [4], the IC50 was 24 ± 7 µM. Also, in test [2], the “AR inhibition (in words)” value is “ineffective” and the remaining activity at 71 µM stood at 82 ± 3%.

These data come from paper PMC8950868, “Identifying Human PTP1B Enzyme Inhibitors from Marine Natural Products: Perspectives for Developing of Novel Insulin-Mimetic Drugs” (Pharmaceuticals, 2022).
